From patent publication US8962681B2, “Use of aminoacetonitrile derivatives against endoparasites” (Zoetis LLC, priority 2011, dated 2015)

Test system: Dirofilaria immitis microfilariae
Test: in vitro microwell motility assay against heartworm microfilariae
Assay type: cell-based
Conditions: microfilaria from canine blood, 384 well plate, 72 hours incubation at 37° C. and 5% CO2, LemnaTec Scanalyzer

Structure (SMILES)	ED50 (dose at which the overall microfilaria motility was reduced by 50% compared to that of an untreated control)
CC(C#N)(COc1cc(C#N)ccc1C(F)(F)F)NC(=O)c1ccc(S(F)(F)(F)(F)F)cc1 (stereo not drawn) [test compound 3, N-{1-cyano-2-[5-cyano-2-(trifluoromethyl)phenoxy]-1-methylethyl}-4-(pentafluorothio)benzamide]	10 µM
CC(C#N)(COc1cc(C#N)ccc1Cl)NC(=O)c1ccc(S(F)(F)(F)(F)F)cc1 (stereo not drawn) [test compound 4, N-[2-(2-chloro-5-cyanophenoxy)-1-cyano-1-methylethyl]-4-(pentafluorothio)benzamide]	10 µM
CC(C#N)(COc1cc(C#N)cc(C(F)(F)F)c1)NC(=O)c1ccc(S(F)(F)(F)(F)F)cc1 (stereo not drawn) [test compound 5, N-{1-cyano-2-[3-cyano-5-(trifluoromethyl)phenoxy]-1-methylethyl}-4-(pentafluorothio)benzamide]	3.3 µM
CC(C#N)(COc1cccc(Cl)c1C#N)NC(=O)c1ccc(S(F)(F)(F)(F)F)cc1 (stereo not drawn) [test compound 17, N-[2-(3-chloro-2-cyanophenoxy)-1-cyano-1-methylethyl]-4-(pentafluorothio)-benzamide]	10 µM
CC(C#N)(COc1ccc(Cl)cc1F)NC(=O)c1ccc(S(F)(F)(F)(F)F)cc1 (stereo not drawn) [test compound 20, N-[2-(4-chloro-2-fluorophenoxy)-1-cyano-1-methylethyl]-4-(pentafluorothio)-benzamide]	10 µM
CC(C#N)(COc1c(F)cc(C#N)cc1C(F)(F)F)NC(=O)c1ccc(S(F)(F)(F)(F)F)cc1 (stereo not drawn) [test compound 26, N-{1-cyano-2-[4-cyano-2-fluoro-6-(trifluoromethyl)phenoxy]-1-methylethyl}-4-(pentafluorothio)benzamide]	10 µM
CC(C#N)(COc1cc(C#N)ccc1Br)NC(=O)c1ccc(S(F)(F)(F)(F)F)cc1 (stereo not drawn) [test compound 27, N-[2-(2-bromo-5-cyanophenoxy)-1-cyano-1-methylethyl]-4-(pentafluorothio)-benzamide]	3.3 µM
CC(C#N)(COc1ccc(F)cc1Br)NC(=O)c1ccc(S(F)(F)(F)(F)F)cc1 (stereo not drawn) [test compound 31, N-[2-(2-bromo-4-fluorophenoxy)-1-cyano-1-methylethyl]-4-(pentafluorothio)-benzamide]	10 µM
CC(C#N)(COc1ccc(Br)cc1F)NC(=O)c1ccc(S(F)(F)(F)(F)F)cc1 (stereo not drawn) [test compound 32, N-[2-(4-bromo-2-fluorophenoxy)-1-cyano-1-methylethyl]-4-(pentafluorothio)-benzamide]	33 µM
CC(C#N)(COc1cc(Br)cc(C#N)c1)NC(=O)c1ccc(S(F)(F)(F)(F)F)cc1 (stereo not drawn) [test compound 33, N-[2-(3-bromo-5-cyanophenoxy)-1-cyano-1-methylethyl]-4-(pentafluorothio)-benzamide]	33 µM
CC(C#N)(COc1cc(Br)ccc1C#N)NC(=O)c1ccc(S(F)(F)(F)(F)F)cc1 (stereo not drawn) [test compound 36, N-[2-(5-bromo-2-cyanophenoxy)-1-cyano-1-methylethyl]-4-(pentafluorothio)-benzamide]	10 µM
CC(C#N)(COc1ccc(Cl)c(Cl)c1)NC(=O)c1ccc(S(F)(F)(F)(F)F)cc1 (stereo not drawn) [test compound 38, N-[1-cyano-2-(3,4-dichlorophenoxy)-1-methylethyl]-4-(pentafluorothio)benzamide]	33 µM
CC(C#N)(COc1cc(Cl)ccc1Cl)NC(=O)c1ccc(S(F)(F)(F)(F)F)cc1 (stereo not drawn) [test compound 39, N-[1-cyano-2-(2,5-dichlorophenoxy)-1-methylethyl]-4-(pentafluorothio)benzamide]	10 µM
Cc1cc(C#N)ccc1OCC(C)(C#N)NC(=O)c1ccc(S(F)(F)(F)(F)F)cc1 (stereo not drawn) [test compound 40, N-[1-cyano-2-(4-cyano-2-methylphenoxy)-1-methylethyl]-4-(pentafluorothio)-benzamide]	10 µM
COc1ccc(OCC(C)(C#N)NC(=O)c2ccc(S(F)(F)(F)(F)F)cc2)cc1C#N (stereo not drawn) [test compound 41, N-[1-cyano-2-(3-cyano-4-methoxyphenoxy)-1-methylethyl]-4-(pentafluorothio)-benzamide]	33 µM
CC(C#N)(COc1cccc(Cl)c1C(F)(F)F)NC(=O)c1ccc(S(F)(F)(F)(F)F)cc1 (stereo not drawn) [test compound 50, N-{2-[3-chloro-2-(trifluoromethyl)phenoxy]-1-cyano-1-methylethyl}-4-(pentafluorothio)benzamide]	33 µM
CSc1ccc(COCC(C)(C#N)NC(=O)c2ccc(S(F)(F)(F)(F)F)cc2)cc1 (stereo not drawn) [test compound 53, N-(1-cyano-1-methyl-2-{[4-(methylthio)benzyl]oxy}ethyl)-4-(pentafluorothio)benzamide]	10 µM
CC(C#N)(COc1c(F)cc(F)cc1C#N)NC(=O)c1ccc(S(F)(F)(F)(F)F)cc1 (stereo not drawn) [test compound 54, N-[1-cyano-2-(2-cyano-4,6-difluorophenoxy)-1-methylethyl]-4-(pentafluorothio)-benzamide]	33 µM
CC(C#N)(COc1cc(C#N)ccc1OC(F)(F)F)NC(=O)c1ccc(S(F)(F)(F)(F)F)cc1 (stereo not drawn) [test compound 55, N-{1-cyano-2-[5-cyano-2-(trifluoromethoxy)phenoxy]-1-methylethyl}-4-(pentafluorothio)benzamide]	10 µM
CC(C#N)(COc1ccc(C#N)cc1OC(F)(F)F)NC(=O)c1ccc(S(F)(F)(F)(F)F)cc1 (stereo not drawn) [test compound 56, N-{1-cyano-2-[4-cyano-2-(trifluoromethoxy)phenoxy]-1-methylethyl}-4-(pentafluorothio)benzamide]	3.3 µM
CC(C#N)(COc1cc(C#N)ccc1Cl)NC(=O)c1ccc(S(F)(F)(F)(F)F)cc1 (stereo not drawn) [test compound 57, N-[2-(2-chloro-5-cyanophenoxy)-1-cyano-1-methylethyl]-4-(pentafluorothio)-benzamide]	10 µM
CC(C#N)(COc1cc(F)c(F)cc1Br)NC(=O)c1ccc(S(F)(F)(F)(F)F)cc1 (stereo not drawn) [test compound 58, N-[2-(2-bromo-4,5-difluorophenoxy)-1-cyano-1-methylethyl]-4-(pentafluorothio)benzamide]	33 µM
CC(C#N)(COc1cc(C#N)ccc1Oc1ccc(F)cc1)NC(=O)c1ccc(S(F)(F)(F)(F)F)cc1 (stereo not drawn) [test compound 61, N-{1-cyano-2-[5-cyano-2-(4-fluorophenoxy)phenoxy]-1-methylethyl}-4-(pentafluorothio)benzamide]	1 µM
CC(C#N)(COc1cc(C#N)ccc1Oc1ccc(Cl)cc1F)NC(=O)c1ccc(S(F)(F)(F)(F)F)cc1 (stereo not drawn) [test compound 62, N-{2-[2-(4-chloro-2-fluorophenoxy)-5-cyanophenoxy]-1-cyano-1-methylethyl}-4-(pentafluorothio)benzamide]	1 µM
CC(C#N)(COc1cc(C#N)ccc1Oc1ccc(F)cc1Cl)NC(=O)c1ccc(S(F)(F)(F)(F)F)cc1 (stereo not drawn) [test compound 63, N-{2-[2-(2-chloro-4-fluorophenoxy)-5-cyanophenoxy]-1-cyano-1-methylethyl}-4-(pentafluorothio)benzamide]	3.3 µM
CC(C#N)(COc1cc(C#N)ccc1Oc1ccc(Cl)cc1)NC(=O)c1ccc(S(F)(F)(F)(F)F)cc1 (stereo not drawn) [test compound 64, N-{2-[2-(4-chlorophenoxy)-5-cyanophenoxy]-1-cyano-1-methylethyl}-4-(pentafluorothio)benzamide]	1 µM
CC(C#N)(COc1cc(C#N)ccc1Oc1ccc(Cl)cc1Cl)NC(=O)c1ccc(S(F)(F)(F)(F)F)cc1 (stereo not drawn) [test compound 65, N-{1-cyano-2-[5-cyano-2-(2,4-dichlorophenoxy)phenoxy]-1-methylethyl}-4-(pentafluorothio)benzamide]	3.3 µM
COc1ccc(Oc2ccc(C#N)cc2OCC(C)(C#N)NC(=O)c2ccc(S(F)(F)(F)(F)F)cc2)cc1 (stereo not drawn) [test compound 66, N-{1-cyano-2-[5-cyano-2-(4-methoxyphenoxy)phenoxy]-1-methylethyl}-4-(pentafluorothio)benzamide]	3.3 µM
CC(C#N)(COc1cc(C#N)ccc1Oc1ccc(C(F)(F)F)cc1)NC(=O)c1ccc(S(F)(F)(F)(F)F)cc1 (stereo not drawn) [test compound 67, N-(1-cyano-2-{5-cyano-2-[4-(trifluoromethyl)phenoxy]phenoxy}-1-methylethyl)-4-(pentafluorothio)benzamide]	1 µM
Cc1ccc(Oc2ccc(C#N)cc2OCC(C)(C#N)NC(=O)c2ccc(S(F)(F)(F)(F)F)cc2)c(Cl)c1 (stereo not drawn) [test compound 71, N-{2-[2-(2-chloro-4-methylphenoxy)-5-cyanophenoxy]-1-cyano-1-methylethyl}-4-(pentafluorothio)benzamide]	1 µM
